One assay has as its target T1, rat 5-HT7a receptor (Rattus norvegicus, UniProt P32305).
T1 construct: expressed in transfected cells; host or cells: HEK-293
Put plainly: Affinity for 5-HT7 receptor binding sites (competition radioligand binding, [3H]5-CT). The conditions noted are these: membranes of HEK-293 cells with rat 5-HT7a; 1 nM [3H]5-CT; * = tested as hydrochloride salt. On the procedure: Stock drug solutions (10 mM) were prepared in DMSO (the final assay concentration of DMSO not exceeding 0.4%). Drug dilutions were prepared in assay buffer.
Sigmoidal inhibition curves were generated and fitted by nonlinear regression analysis (GraphPad Prism).
1. Affinity for 5-HT7 Receptor Binding Sites
The affinity of the compounds described in this invention for the 5-HT7 receptor binding site was evaluated by single competition radioligand binding assay. The assay was performed on membranes prepared from HEK-293 cells that had been subjected to stable transfection with the rat 5-HT7a receptor (GB: NM022938). Cells were scraped from the culture plates, suspended in Tris-HCl 50 mM pH 7.5 and collected through centrifugation (1000 rpm for 5 min). The cell pellets were homogenized (Polytron, 15 s, setting 5) in 50 mM Tris-HCl (pH 7.5), 5 mM EDTA. Following centrifugation (15,000 rpm for 25 min), membranes (135 μg protein/mL) were resuspended in the same buffer and incubated for 60 min at RT with 1 nM [^3H]5-CT in the presence of increasing concentration of test compounds. Nonspecific binding was defined in the presence of 10 μM 5-HT. Incubation was stopped by rapid filtration using the cell harvester (Packard). Radioactivity was counted in a TopCount-NXT (Packard). Experiments were conducted in triplicate.

The target in assay [1] is T2, human recombinant 5-HT2B receptor (Homo sapiens, UniProt P41595).
T2 construct: expressed in transfected cells; host or cells: CHO
Put plainly: Affinity for 5-HT2B receptor binding sites (competitive radioligand binding, [3H]mesulergine). The conditions noted are these: membranes of CHO with h5-HT2B, * = tested as hydrochloride salt. The procedure, abridged:
(§1)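 Membranes from NIH3T3 cells stably expressing h5-HT2A or CHO cells stably expressing h5-HT2B/h5-HT2C; [3H]ketanserin used for 5-HT2A, [3H]mesulergine for 5-HT2B/2C. Compounds from 10 mM DMSO stocks, final DMSO ≤0.4%. Affinity from sigmoidal inhibition curves fitted by nonlinear regression.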

For assay [2], the target named is T3, human recombinant 5-HT2C receptor (Homo sapiens, UniProt P28335).
T3 construct: expressed in transfected cells; host or cells: CHO
T3 sequence (P28335 33-458): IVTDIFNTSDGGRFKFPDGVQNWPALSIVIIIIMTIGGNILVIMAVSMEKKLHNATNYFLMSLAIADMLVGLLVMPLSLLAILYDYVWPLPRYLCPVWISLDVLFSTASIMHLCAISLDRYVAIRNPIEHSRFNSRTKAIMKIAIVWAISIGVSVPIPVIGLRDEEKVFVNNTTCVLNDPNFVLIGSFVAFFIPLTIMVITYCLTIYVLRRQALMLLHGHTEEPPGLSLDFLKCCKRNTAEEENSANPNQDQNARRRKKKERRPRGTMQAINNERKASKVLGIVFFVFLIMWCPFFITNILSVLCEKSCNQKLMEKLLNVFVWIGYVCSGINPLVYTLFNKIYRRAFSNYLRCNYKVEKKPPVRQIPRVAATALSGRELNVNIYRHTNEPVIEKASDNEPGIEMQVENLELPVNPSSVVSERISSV
Put plainly: Affinity for 5-HT2C receptor binding sites (competitive radioligand binding, [3H]mesulergine). The conditions noted are these: membranes of CHO with h5-HT2C, * = tested as hydrochloride salt. The procedure, abridged:
as §1

Assay [3] deals with T4, human recombinant 5-HT2A receptor (Homo sapiens, UniProt P28223).
T4 construct: expressed in transfected cells; host or cells: NIH3T3
Put plainly: Affinity for 5-HT2A receptor binding sites (competitive radioligand binding, [3H]ketanserin). The conditions noted are these: membranes of NIH3T3 with h5-HT2A, * = tested as hydrochloride salt. The procedure, abridged: as §1

For assay [4], the target named is T5, human recombinant 5-HT6 receptor (Homo sapiens, UniProt P50406).
T5 construct: expressed in transfected cells; host or cells: HEK-293
The assay can be described thus: Affinity for 5-HT6 receptor binding sites (competitive radioligand binding, [3H]LSD). The conditions noted are these: membranes of HEK-293 with h5-HT6, * = tested as hydrochloride salt. The procedure, abridged:
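Membranes from HEK-293 cells stably expressing human 5-HT6, competition against [3H]LSD; nonspecific binding defined with 1 μM clozapine. DMSO ≤0.4% final. Inhibition curves fitted by nonlinear regression.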

Structures can show the parent of a compound that is named as a salt. A value given as a limit tells only on which side of the number the result lay.

T4 sequence (P28223 whole entry): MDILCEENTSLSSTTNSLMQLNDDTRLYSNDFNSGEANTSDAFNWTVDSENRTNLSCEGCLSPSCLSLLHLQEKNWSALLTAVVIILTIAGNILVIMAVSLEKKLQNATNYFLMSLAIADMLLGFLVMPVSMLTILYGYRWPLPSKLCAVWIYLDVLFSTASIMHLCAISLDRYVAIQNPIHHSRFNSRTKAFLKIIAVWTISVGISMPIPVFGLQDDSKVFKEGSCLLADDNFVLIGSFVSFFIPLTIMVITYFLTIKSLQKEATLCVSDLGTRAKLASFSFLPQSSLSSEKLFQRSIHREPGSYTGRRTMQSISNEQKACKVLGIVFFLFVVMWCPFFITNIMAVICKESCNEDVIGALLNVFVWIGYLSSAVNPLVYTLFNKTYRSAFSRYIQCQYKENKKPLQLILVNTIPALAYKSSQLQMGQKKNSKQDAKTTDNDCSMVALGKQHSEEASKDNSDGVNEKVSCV
T2 sequence (P41595 whole entry): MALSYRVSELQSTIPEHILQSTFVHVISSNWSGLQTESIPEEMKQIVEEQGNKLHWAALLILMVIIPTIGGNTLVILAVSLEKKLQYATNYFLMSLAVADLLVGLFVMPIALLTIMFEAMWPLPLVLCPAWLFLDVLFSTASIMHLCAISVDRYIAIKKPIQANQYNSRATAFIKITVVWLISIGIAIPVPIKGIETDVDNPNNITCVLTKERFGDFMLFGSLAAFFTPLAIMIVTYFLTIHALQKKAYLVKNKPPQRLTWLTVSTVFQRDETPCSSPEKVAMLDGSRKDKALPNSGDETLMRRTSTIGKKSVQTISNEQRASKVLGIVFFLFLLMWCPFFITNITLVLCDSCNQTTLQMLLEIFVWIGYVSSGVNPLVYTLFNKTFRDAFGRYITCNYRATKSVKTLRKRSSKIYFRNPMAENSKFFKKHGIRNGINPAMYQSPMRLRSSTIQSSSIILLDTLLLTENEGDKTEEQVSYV
T5 sequence (P50406 whole entry): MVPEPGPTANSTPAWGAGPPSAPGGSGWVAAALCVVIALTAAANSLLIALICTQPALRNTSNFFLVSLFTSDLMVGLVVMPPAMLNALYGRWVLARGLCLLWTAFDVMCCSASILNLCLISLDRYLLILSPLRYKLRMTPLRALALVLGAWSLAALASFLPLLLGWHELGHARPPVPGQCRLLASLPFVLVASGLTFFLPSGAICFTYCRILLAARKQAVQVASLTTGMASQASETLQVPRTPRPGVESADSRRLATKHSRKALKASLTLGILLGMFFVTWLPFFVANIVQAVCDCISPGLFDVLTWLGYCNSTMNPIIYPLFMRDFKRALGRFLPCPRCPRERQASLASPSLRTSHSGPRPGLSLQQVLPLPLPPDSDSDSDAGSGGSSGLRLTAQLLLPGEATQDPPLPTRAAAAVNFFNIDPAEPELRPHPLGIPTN
T1 sequence (P32305 whole entry): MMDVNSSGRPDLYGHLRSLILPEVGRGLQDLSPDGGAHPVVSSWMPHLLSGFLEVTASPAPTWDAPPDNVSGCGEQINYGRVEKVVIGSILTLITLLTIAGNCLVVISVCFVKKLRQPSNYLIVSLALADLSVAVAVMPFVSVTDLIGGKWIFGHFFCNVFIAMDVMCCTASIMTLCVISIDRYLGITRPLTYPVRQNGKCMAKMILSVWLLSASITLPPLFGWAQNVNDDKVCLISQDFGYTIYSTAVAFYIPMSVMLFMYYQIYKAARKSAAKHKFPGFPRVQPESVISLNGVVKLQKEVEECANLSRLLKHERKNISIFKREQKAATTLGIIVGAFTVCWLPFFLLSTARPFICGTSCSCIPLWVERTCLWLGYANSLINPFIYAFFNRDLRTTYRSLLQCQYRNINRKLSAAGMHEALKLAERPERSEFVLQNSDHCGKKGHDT

In the case of `COc1ccc(-c2nc(N3CCCCC3C)nc3c2CCCNC3)cc1` (stereo not drawn) [Example 5, 4-(4-Methoxy-phenyl)-2-(2-methyl-piperidin-1-yl)-6,7,8,9-tetrahydro-5H-pyrimido[4,5-c]azepine hydrochloride], the inhibition constant Ki (as a rule, a measure of affinity in units of concentration, obtained from inhibition or displacement) at rat 5-HT7a receptor was more than 10000 nM; in assay [1] it was 200 nM; in assay [2] it was 1800 nM; in assay [3], 1500 nM; in assay [4], 127 nM.

`CCN(CC)c1nc2c(c(-c3ccc(F)cc3)n1)CCNCC2` [Example 9, Diethyl-[4-(4-fluoro-phenyl)-6,7,8,9-tetrahydro-5H-pyrimido[4,5-d]azepin-2-yl]-amine hydrochloride]: the Ki is 29 nM on rat 5-HT7a receptor; 7 nM in assay [1]; 40 nM in assay [2]; 20 nM in assay [3]; 84 nM in assay [4].

With `CCN(CC)c1nc2c(c(-c3ccc(C#N)cc3)n1)CCNCC2` [Example 14, 4-(2-Diethylamino-6,7,8,9-tetrahydro-5H-pyrimido[4,5-d]azepin-4-yl)-benzonitrile hydrochloride], the inhibition constant (Ki) on rat 5-HT7a receptor was determined as 63 nM; in assay [1], 5 nM; in assay [2], 130 nM; in assay [3] it was 40 nM; in assay [4], 220 nM.

As to `CCN(CC)c1nc2c(c(-c3ccsc3)n1)CCNCC2` [Example 12, Diethyl-(4-thiophen-3-yl-6,7,8,9-tetrahydro-5H-pyrimido[4,5-d]azepin-2-yl)-amine hydrochloride], the Ki was found to be 40 nM on rat 5-HT7a receptor; 3.2 nM in assay [1]; 50 nM in assay [2]; 30 nM in assay [3]; 80 nM in assay [4].

As to `CCN(CC)c1nc2c(c(-c3ccc(C#N)cc3)n1)CCNC2` [Example 30, 4-(2-Diethylamino-5,6,7,8-tetrahydro-pyrido[3,4-d]pyrimidin-4-yl)-benzonitrile], the Ki was 300 nM at rat 5-HT7a receptor; 60 nM in assay [1]; 1400 nM in assay [2]; 48 nM in assay [3]; 3720 nM in assay [4].

For `CCN(CC)c1nc2c(c(-c3ccc(C#N)cc3)n1)CCCNC2` [Example 4, 4-(2-Diethylamino-6,7,8,9-tetrahydro-5H-pyrimido[4,5-c]azepin-4-yl)-benzonitrile], the Ki on rat 5-HT7a receptor came out at 920 nM; in assay [1], 100 nM; in assay [2], 9000 nM; in assay [3] it was 240 nM; in assay [4], 3750 nM.

As to `CCN(CC)c1nc2c(c(-c3ccc(OC)cc3)n1)CCNC2` [Example 28, Diethyl-[4-(4-methoxy-phenyl)-5,6,7,8-tetrahydro-pyrido[3,4-d]pyrimidin-2-yl]-amine], the Ki on rat 5-HT7a receptor came to 130 nM; in assay [1], 15 nM; in assay [2] it was 280 nM; in assay [3] it was 70 nM; in assay [4], 1510 nM.

Regarding `Cc1ccc(-c2nc(N(C)C)nc3c2CNCC3)cc1` [Example 61, Dimethyl-(4-p-tolyl-5,6,7,8-tetrahydro-pyrido[4,3-d]pyrimidin-2-yl)-amine], the inhibitory constant (Ki) at rat 5-HT7a receptor was 9000 nM; in assay [1], 620 nM; in assay [2] it was 5000 nM; in assay [3], 420 nM; in assay [4] it was 2290 nM.

With `CCN(CC)c1nc2c(c(-c3ccc(C)cc3)n1)CCNCC2` [Example 11, Diethyl-(4-p-tolyl-6,7,8,9-tetrahydro-5H-pyrimido[4,5-d]azepin-2-yl)-amine hydrochloride], the Ki at rat 5-HT7a receptor is 40 nM; in assay [1] it was 5 nM; in assay [2], 63 nM; in assay [3] it was 4 nM; in assay [4] it was 25 nM.

`CCN(CC)c1nc2c(c(-c3ccc(OC)cc3)n1)CCNCC2` [Example 13, Diethyl-[4-(4-methoxy-phenyl)-6,7,8,9-tetrahydro-5H-pyrimido[4,5-d]azepin-2-yl]-amine hydrochloride]: the Ki on rat 5-HT7a receptor was 32 nM; in assay [1] it was 0.8 nM; in assay [2], 40 nM; in assay [3] it was 10 nM; in assay [4], 28 nM.

As to `CC(C)N(c1nc2c(c(-c3ccc(F)cc3)n1)CNCC2)C(C)C` [Example 43, [4-(4-Fluoro-phenyl)-5,6,7,8-tetrahydro-pyrido[4,3-d]pyrimidin-2-yl]-diisopropyl-amine hydrochloride], the inhibitory constant (Ki) was 320 nM on rat 5-HT7a receptor; 100 nM in assay [1]; 150 nM in assay [2]; 3 nM in assay [3]; 195 nM in assay [4].

With `CC1CCCCN1c1nc2c(c(-c3ccc(C#N)cc3)n1)CCCNC2` (stereo not drawn) [Example 7, 4-[2-(2-Methyl-piperidin-1-yl)-6,7,8,9-tetrahydro-5H-pyrimido[4,5-c]azepin-4-yl]-benzonitrile], the Ki on rat 5-HT7a receptor was more than 10000 nM; in assay [1], 280 nM; in assay [2], 3200 nM; in assay [3], 400 nM; in assay [4], 1240 nM.

Turning to `Cc1ccc(-c2nc(N3CCOCC3)nc3c2CNCC3)cc1` [Example 49, 2-Morpholin-4-yl-4-p-tolyl-5,6,7,8-tetrahydro-pyrido[4,3-d]pyrimidine], the Ki on rat 5-HT7a receptor turned out to be 530 nM; in assay [1] it was 5010 nM; in assay [2] it was 630 nM; in assay [3] it was 100 nM; in assay [4], 2090 nM.

As for `CCN(CC)c1nc2c(c(-c3ccc(Cl)cc3)n1)CCNCC2` [Example 60, [4-(4-Chloro-phenyl)-6,7,8,9-tetrahydro-5H-pyrimido[4,5-d]azepin-2-yl]-diethyl-amine], the Ki was 41 nM on rat 5-HT7a receptor; 10 nM in assay [1]; 100 nM in assay [2]; 20 nM in assay [3]; more than 10000 nM in assay [4].

Turning to `CCN(CC)c1nc2c(c(-c3ccc(C)cc3)n1)CCCNC2` [Example 2], the Ki was 220 nM on rat 5-HT7a receptor; 25 nM in assay [1]; 430 nM in assay [2]; 170 nM in assay [3]; 300 nM in assay [4].
